For assay [1], the target named is T1, Beta-2 adrenergic receptor (Homo sapiens, UniProt P07550). Description: Beta-2 adrenergic receptor agonist activity as increased cAMP levels in CHO cells expressing human Beta-2-adrenoceptor. In kind it is functional, cell-based. For orientation: Changes in cAMP serve as a functional read-out for many G protein-coupled receptors.
Assay [2] concerns the target T2, Beta-3 adrenergic receptor (Homo sapiens, UniProt P13945). Description: Beta-3 adrenergic receptor agonist activity as increased cAMP levels in CHO cells expressing human Beta-3-adrenoceptor. In kind it is functional, cell-based.
Target sequence in this assay (P13945 whole entry): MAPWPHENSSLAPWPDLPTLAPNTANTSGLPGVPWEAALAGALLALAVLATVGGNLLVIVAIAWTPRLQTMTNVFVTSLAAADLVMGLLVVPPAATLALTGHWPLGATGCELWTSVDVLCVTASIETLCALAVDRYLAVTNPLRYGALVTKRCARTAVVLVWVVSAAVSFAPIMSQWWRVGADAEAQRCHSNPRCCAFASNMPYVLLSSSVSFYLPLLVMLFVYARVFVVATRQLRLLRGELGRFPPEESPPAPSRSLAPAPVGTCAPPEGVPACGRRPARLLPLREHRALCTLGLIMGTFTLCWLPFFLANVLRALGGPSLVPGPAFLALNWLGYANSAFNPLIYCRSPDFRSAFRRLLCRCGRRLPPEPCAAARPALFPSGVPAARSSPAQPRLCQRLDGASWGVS
Assay [3] addresses T2, Beta-3 adrenergic receptor. Description: Human Beta-3 adrenergic receptor intrinsic activity (IA) as maximal response relative to isoproterenol at […]. Format: functional.
Target sequence in this assay (P13945 whole entry, looked up): as the sequence (P13945 whole entry) above
The target of assay [4] is T3, Beta-1 adrenergic receptor (Homo sapiens, UniProt P08588). Description: Beta-1 adrenergic receptor agonist activity as increased cAMP levels in CHO cells expressing human Beta-1-adrenoceptor. Format: functional, cell-based.
Target sequence in this assay (P08588 whole entry): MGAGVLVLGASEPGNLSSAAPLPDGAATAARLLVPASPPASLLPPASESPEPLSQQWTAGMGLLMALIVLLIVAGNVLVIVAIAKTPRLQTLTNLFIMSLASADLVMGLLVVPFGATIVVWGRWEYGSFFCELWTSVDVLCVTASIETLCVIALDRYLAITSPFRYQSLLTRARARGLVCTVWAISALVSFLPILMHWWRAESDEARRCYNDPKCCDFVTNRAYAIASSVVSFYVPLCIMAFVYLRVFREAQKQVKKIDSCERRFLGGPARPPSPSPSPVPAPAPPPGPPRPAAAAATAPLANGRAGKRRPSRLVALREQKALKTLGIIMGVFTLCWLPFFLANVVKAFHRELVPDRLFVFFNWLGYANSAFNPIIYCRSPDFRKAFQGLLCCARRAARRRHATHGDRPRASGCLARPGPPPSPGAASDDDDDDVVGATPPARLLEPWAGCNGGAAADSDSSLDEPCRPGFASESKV
Assay [5] addresses T2, Beta-3 adrenergic receptor. Description: Beta-3 adrenergic receptor agonist activity was determined by a measurement of increased cAMP levels in CHO cells expressing human Beta-3-adrenoceptor; IA is Inactive. In kind it is functional, cell-based.
Target sequence in this assay (P13945 whole entry): as the sequence (P13945 whole entry) above
Assay [6] deals with T3, Beta-1 adrenergic receptor. Kind of assay: Human Beta-1 adrenergic receptor determined as the maximal response divided by the maximal response of isoproterenol at […]. Format: functional.
Target sequence in this assay (P08588 whole entry, looked up): as the sequence (P08588 whole entry) above
The target of assay [7] is T1, Beta-2 adrenergic receptor. Kind of assay: Beta-2 adrenergic receptor agonist activity was determined by a measurement of increased cAMP levels in CHO cells expressing human Beta-2 adrenergic receptor. Format: functional, cell-based.
Assay [8] concerns the target T1, Beta-2 adrenergic receptor. Description: Binding affinity of compound against Beta-2 adrenergic receptor was determined.
Assay [9] addresses T3, Beta-1 adrenergic receptor. Kind of assay: (§1) Binding affinity of compound against Beta-1 adrenergic receptor was determined. Format: functional.
Target sequence in this assay (P08588 whole entry): as above
In assay [10] the target is T2, Beta-3 adrenergic receptor. Description: Evaluated in vivo using transgenic mice containing the human Beta-3-Adrenoceptor and increase in themogenesis was determined. In kind it is functional, organism-based. The conditions noted are these: Mus musculus.
Target sequence in this assay (P13945 whole entry, looked up): as the sequence (P13945 whole entry) above
Assay [11] addresses T3, Beta-1 adrenergic receptor. Described as §1.
Target sequence in this assay (P08588 whole entry): as the sequence (P08588 whole entry) above

In general, EC50 refers to the concentration needed to bring the measured effect to its halfway point. As usually defined, the Ki is a dissociation constant, usually derived from enzyme kinetics or from competition with a known ligand. A high value points to lower affinity.

T1 sequence (P07550 whole entry): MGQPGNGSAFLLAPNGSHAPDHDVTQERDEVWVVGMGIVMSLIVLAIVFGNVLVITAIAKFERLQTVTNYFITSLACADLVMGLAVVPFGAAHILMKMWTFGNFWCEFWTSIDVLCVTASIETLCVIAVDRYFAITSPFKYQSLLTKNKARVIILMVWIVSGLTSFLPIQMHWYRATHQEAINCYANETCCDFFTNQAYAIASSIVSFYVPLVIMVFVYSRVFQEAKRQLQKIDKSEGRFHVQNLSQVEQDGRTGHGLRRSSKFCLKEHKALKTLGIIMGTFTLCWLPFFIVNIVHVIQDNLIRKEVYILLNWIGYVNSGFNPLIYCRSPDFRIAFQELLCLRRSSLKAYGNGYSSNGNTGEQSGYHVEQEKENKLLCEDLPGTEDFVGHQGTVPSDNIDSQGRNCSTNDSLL

Take `CC(C)N(Cc1cc(F)ccc1F)C(=O)Nc1ccc(S(=O)(=O)N2CCC(CNC[C@H](O)c3ccc(O)c(NS(C)(=O)=O)c3)CC2)cc1`: the concentration for a half-maximal effect (EC50) in [1] came out at 12 nM; in assay [2] it was 27 nM; in assay [4], 6300 nM. In addition, the Intrinsic activity in [3] was 0.93.
As to `CS(=O)(=O)Nc1cc([C@@H](O)CNCC2CCN(S(=O)(=O)c3ccc(-n4cc(C(=O)O)cn4)cc3)CC2)ccc1O`, the figures for the EC50 in assay [1] and in [4] were 10 nM and 1000 nM, respectively. For the same molecule, the Intrinsic activity in assay [3] stood at 0.93.
Turning to `CCCCCCCCNC(=O)Nc1ccc(S(=O)(=O)N2CCC(CNC[C@H](O)c3ccc4[nH]ccc4c3)CC2)cc1`, the EC50 result in assay [5] was “Not Active”.
Consider `CS(=O)(=O)Nc1cc([C@@H](O)CNCC2CCN(c3ccc(C(=O)N[C@@H](Cc4ccccc4)C(=O)O)cc3)CC2)ccc1O`, for which the figures for the half-maximal effective concentration (EC50) in assay [1], in assay [2] and in [4] were 20000 nM, 31 nM and 520 nM, respectively. In addition, the Intrinsic activity in assay [6] was 0.6; in [3] it was 1.2.
With `CS(=O)(=O)Nc1cc([C@@H](O)CNCC2CCN(S(=O)(=O)c3ccc(NC(=O)NCc4cc(F)ccc4F)cc3)CC2)ccc1O`, the EC50 in [2] turned out to be 5 nM; in [7], 30 nM; in assay [4], 3160 nM. Also, in assay [3], the Intrinsic activity came to 0.93.
With `CCCCCCCCC(=O)Nc1ccc(S(=O)(=O)N2CCC(CNC[C@H](O)c3ccc(O)c(NS(C)(=O)=O)c3)CC2)cc1`, the EC50 in assay [1] is 30 nM; in assay [2], 6 nM; in assay [4] it was 730 nM. Further, the figures for the Ki in [8] and in assay [9] were 140 nM and 6600 nM, respectively. In assay [3], the Intrinsic activity is 1. Also, the Increase in assay [10] was 10%.
Turning to `CS(=O)(=O)Nc1cc([C@@H](O)CNCC2CCN(S(=O)(=O)c3ccc(-n4cc(CC(=O)O)c5ccccc54)cc3)CC2)ccc1O`, the inhibition constant Ki in assay [11] is 240 nM; in assay [8], 180 nM. Also, the 50% effective concentration (EC50) in [1] and in [4] was 30 nM each time. The Intrinsic activity in assay [3] was determined as 0.96.
For the molecule `CCCCCCCCNC(=O)Nc1ccc(S(=O)(=O)N2CCC(CNC[C@H](O)c3cc(NS(C)(=O)=O)c4[nH]ccc4c3)CC2)cc1`, the concentration giving a half-maximal response (EC50) result in assay [5] is recorded as “Not Active”.
Regarding `CC(C)C[C@H](NC(=O)c1ccc(N2CCC(CNC[C@H](O)c3ccc(O)c(NS(C)(=O)=O)c3)CC2)cc1)C(=O)O`, the results for the concentration for a half-maximal effect (EC50) in [1] and in assay [4] were 1000 nM and 1860 nM, respectively. Moreover, the Intrinsic activity in assay [3] amounted to 1.
Regarding `CS(=O)(=O)Nc1cc([C@@H](O)CNCC2CCN(S(=O)(=O)c3ccc(-n4ccc5c(C(=O)O)cccc54)cc3)CC2)ccc1O`, the results for the 50% effective concentration (EC50) in assay [1] and in [4] were 60 nM and 50 nM, respectively. In [3], this molecule yielded an Intrinsic activity of 1.
Taken in the same sequence, the figures for `CS(=O)(=O)Nc1cc([C@@H](O)CNCC2CCN(c3ccc(C(=O)N[C@@H](CC(=O)O)C(=O)O)cc3)CC2)ccc1O` were 5 nM, 580 nM and 0.95.
For the molecule `CS(=O)(=O)Nc1cc([C@@H](O)CNCC2CCN(S(=O)(=O)c3ccc(NC(=O)N[C@@H](Cc4ccccc4)C(=O)O)cc3)CC2)ccc1O`, the EC50 in assay [1] came out at 20 nM; in assay [2], 31 nM; in assay [4], 520 nM. The molecule further gave an Intrinsic activity in assay [3] of 1.2.

Values taken from ChEMBL document CHEMBL1135848, “Novel substituted 4-aminomethylpiperidines as potent and selective human beta3-agonists. Part 2: arylethanolaminomethylpiperidines” (Bioorg Med Chem Lett, 2002).
